The results in this text go back to US10857105B2, “Compounds and compositions for intracellular delivery of therapeutic agents” (ModernaTX, Inc., priority 2017, dated 2020).

Series [1] can be described thus: Clinical chemistry and hematology in rat 48 h after intravenous 2 mpk dose. As to conditions: 48 h post dose. The format is in vivo. The protocol:
Sample formulations of nanoparticle compositions including different lipids were administered intravenously to rat at a dose of 2 mpk. The expression of various clinical markers was evaluated at 48 h post dose and compared to that induced by administration of MC3 formulations or phosphate buffered saline (PBS).

The test system of series [2] is luciferase (Luc) mRNA. The series can be described thus: Luciferase expression (whole body bioluminescence) after intravenous administration to mice. The format is in vivo. Conditions: for Fold increase in Luc expression over MC3 upon intravenous administration: higher doses than the intramuscular data; for Fold increase in Luc expression over MC3 upon intravenous administration / Novel lipid/MC3 expression ratio, i.v. / Total Flux 3 hours / Total Flux 6 hours / Total Flux 24 hours: intravenous; for Novel lipid/MC3 expression ratio, i.v.: luciferase, 6 hr. time point, relative to MC3 formulation; for Total Flux 3 hours / Total Flux 6 hours / Total Flux 24 hours: mice (n=6), 0.5 mg/kg. An outline of the steps: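 Luc mRNA nanoparticles were given IV at 0.5 mg/kg to groups of six mice, and whole-body bioluminescent flux was imaged 3, 6 and 24 h post-dose. Flux AUC for each lipid formulation was reported as a ratio to the MC3 reference formulation.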

Series [3] has as its system luciferase (Luc) mRNA. As to the kind of experiment: Luciferase expression after intramuscular administration to mice. It counts as in vivo. Conditions: for Novel lipid/MC3 expression ratio, i.m. Luc: 6 hr. time point, relative to MC3 formulation. An outline of the steps: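 CD-1 mice received lipid nanoparticle formulations of modified luciferase mRNA intramuscularly at 0.01 mpk. Bioluminescence total flux was measured, including at 6 h, and AUC was expressed relative to MC3 formulations. Immunogenicity was assessed in parallel.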

A short description of series [4]: Chemical stability of lipids in ethanol at room temperature and 37° C. (lipid purity). The format is physicochemical. An outline of the steps:
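Lipid chemical stability was assessed as lipid purity after storage in ethanol at room temperature and at 37° C.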

A further series has as its system mouse tissues. As to the kind of experiment: Lipid clearance from mouse tissues after weekly dosing 0.05 mg/kg mRNA on day 1, 8 and 15. It counts as in vivo. The protocol: Repeat dosing of mRNA in an MC3-based LNP for a therapeutic indication would be expected to lead to accumulation of MC3 in tissues, based on the measured half-life. Therefore it was investigated whether the favorable single dose pharmacokinetics of compound 18 were maintained with weekly dosing. Clearance of MC3 and compound 18 from multiple mouse tissues was measured after dosing 0.05 mg/kg mRNA on day 1, 8 and 15 (FIG. 30A). Following dosing with MC3 LNPs, lipid was detected in liver, spleen, plasma, kidney, heart and lung; with liver and spleen containing the largest concentrations (FIG. 30A, for full panel of tissues see FIG. 35A). […] Compound 18 was also detected in plasma, lung, and kidney, but not in heart (FIG. 35A).

Where [5] appears, read: intravenous administration (Table 3D).
The mark [6] stands for this setting: luciferase, intramuscular administration (Table 3H).

As to `CCCCCCCCCN(CCO)CCCCCCCC(=O)OC(CCCCCCCC)CCCCCCCC` [Compound 3, Heptadecan-9-yl 8-((2-hydroxyethyl)(nonyl)amino)octanoate], in series [1], the “Concentration, Alanine aminotransferase” value is on record as 53.5; the “Concentration, Aspartate aminotransferase” value came out at 87.5; the “Concentration, Lymphocytes” value was 12051; the “Concentration, Monocytes” value is given as 2103. The “Concentration, Neutrophils” value in series [1] stood at 3388.5.
Regarding `CCCCCCCCCOC(=O)CCCCCCCN(CCO)CCCCCCCC(=O)OC(CCCCCCCC)CCCCCCCC` [Compound 18, Heptadecan-9-yl 8-((2-hydroxyethyl)(8-(nonyloxy)-8-oxooctyl)amino)octanoate], the “Fold increase in Luc expression over MC3 upon intravenous administration” value in the series with luciferase (Luc) mRNA [2] is given as “highest fold increase”. Moreover, the “Novel lipid/MC3 expression ratio, i.m. Luc” value with luciferase (Luc) mRNA [3] (intramuscular, luciferase) is on record as 2.01. Moreover, in series [4], the “Lipid Purity, t = 96 h, 25° C.” value came out at 94.71%; the “Lipid Purity, t = 96 h, 37° C.” value stood at 95.01%; the “Lipid Purity, t = 0” value was determined as 94.37%. In addition, the “lipid levels in tissues on weekly dosing” value in the series on mouse tissues is on record as “significantly lower levels than MC3”.
As to `CCCCCC/C=C\COC(=O)CCCCCCCN(CCO)CCCCCCCC(=O)OC(CCCCCCCC)CCCCCCCC` [Compound 24, Heptadecan-9-yl (Z)-8-((2-hydroxyethyl) (8-(non-2-en-1-yloxy)-8-oxooctyl)amino)octanoate], in the series on luciferase (Luc) mRNA [3] (Table 3G, intramuscular, luciferase, 6 hr. timepoint, relative to MC3), the “Novel lipid/MC3 ratio, i.m. Luc” value is recorded as 1.10. Moreover, the “Novel lipid/MC3 expression ratio, i.m. Luc” value with luciferase (Luc) mRNA [3] (intramuscular, luciferase) worked out at 1.10. In series [1], the “Concentration, Alanine aminotransferase” value worked out at 51.5; the “Concentration, Aspartate aminotransferase” value amounted to 90; the “Concentration, Lymphocytes” value was found to be 14100; the “Concentration, Monocytes” value turned out to be 1834. Besides, in series [1], the “Concentration, Neutrophils” value worked out at 1790.5.
`CCCCCCCCCCCOC(=O)CCCCCN(CCO)CCCCCCCC(=O)OC(CCCCCCCC)CCCCCCCC` [Compound 25, Heptadecan-9-yl 8-((2-hydroxyethyl)(6-oxo-6-(undecyloxy)hexyl)amino)octanoate]: in series [1], the “Concentration, Alanine aminotransferase” value worked out at 52; the “Concentration, Aspartate aminotransferase” value came out at 124.5; the “Concentration, Lymphocytes” value is 15924; the “Concentration, Monocytes” value was 2122. For the same compound, the “Concentration, Neutrophils” value in series [1] stood at 1998. For the same compound, in series [4], the “Lipid Purity, t = 96 h, 25° C.” value was found to be 96.23%; the “Lipid Purity, t = 96 h, 37° C.” value is 96.13%; the “Lipid Purity, t = 0” value was 95.58%.
Regarding `CCCCCCCCCOC(=O)CCCN(CCO)CCCCCCCC(=O)OC(CCCCCCCC)CCCCCCCC` [Compound 26, Heptadecan-9-yl 8-((2-hydroxyethyl)(4-(nonyloxy)-4-oxobutyl)amino) octanoate], in the series with luciferase (Luc) mRNA [2], the “Fold increase in Luc expression over MC3 upon intravenous administration” value is “highest fold increase”. Besides, in series [4], the “Lipid Purity, t = 96 h, 25° C.” value came out at 97.38%; the “Lipid Purity, t = 96 h, 37° C.” value came out at 95.72%; the “Lipid Purity, t = 0” value was 98.64%.
Regarding `CCCCCCCCCOC(=O)CCCCCCCN(CCO)CCCCCCCOC(=O)C(CCCCCCCC)CCCCCCCC` [Compound 30, 7-((2-Hydroxyethyl)(8-(nonyloxy)-8-oxooctyl)amino)heptyl 2-octyldecanoate], in series [1], the “Concentration, Alanine aminotransferase” value came to 56; the “Concentration, Aspartate aminotransferase” value is reported as 95; the “Concentration, Lymphocytes” value is given as 10408.5; the “Concentration, Monocytes” value is on record as 877. The “Concentration, Neutrophils” value in series [1] was determined as 3195.
For `CCCCCCCCC(C)OC(=O)CCCCCCCN(CCO)CCCCCCCC(=O)OC(CCCCCCCC)CCCCCCCC` (stereo not shown) [Compound 48, decan-2-yl 8-((8-(heptadecan-9-yloxy)-8-oxooctyl)(2-hydroxyethyl)amino)octanoate], in the series on luciferase (Luc) mRNA [2], the “Novel lipid/MC3 expression ratio, i.v.” value amounted to 10.0. In the series with luciferase (Luc) mRNA [3] (intramuscular, luciferase), the “Novel lipid/MC3 expression ratio, i.m. Luc” value is reported as 0.31.
With `CCCCCC=CCC=CCCCCCCCCC(CCCCCCCCC=CCC=CCCCCC)OC(=O)CCCN(C)C` (stereo not shown) [MC3, heptatriaconta-6,9,28,31-tetraen-19-yl 4-(dimethylamino)butanoate, reference compound], the “Lipid/MC3 Luc expression” value with luciferase (Luc) mRNA [2] (0.5 mpk dose to mouse, 6 hours after administration) was determined as 1. For the same compound, in the series with luciferase (Luc) mRNA [2] (6 h, ffluc), the “Average total flux (6 h, ffluc)” value is given as 6.59 × 10^9 and the “Fold increase in average total flux relative to MC3” value stood at 1. Besides, in the series with luciferase (Luc) mRNA [2] (i.v. administration (Table 3C)), the AUC is recorded as 8.24E+10 h*p/s and the “Fold increase AUC Lipid/MC3” value is 1. In addition, in the series on luciferase (Luc) mRNA [2] (i.v. administration, 6 h), the “Fold increase in total body Luc Flux relative to MC3 at 6 h” value was 1.00. Besides, the “6 h Lipid/MC3 Avg. Luc Expression” value in the series on luciferase (Luc) mRNA [2] (i.v. administration, 6 h (Table 3C)) was 1. Further, in the series with luciferase (Luc) mRNA [2] (setting [5]), the AUC came to 1.909E+011 p/s*h and the “Lipid/MC3 AUC” value came out at 1. Further, in the series with luciferase (Luc) mRNA [2], the “Total Flux 3 hours” value is 1.58E+10, the “Total Flux 6 hours” value is 2.12E+10 and the “Total Flux 24 hours” value is recorded as 7.19E+08. For the same compound, the “Total flux 6 hours after intramuscular administration, 0.01 mpk Dose” value in the series with luciferase (Luc) mRNA [3] (Luc mRNA, intramuscular, 0.01 mpk, 6 hours) is recorded as 3.23E+07 p/s. In the series on luciferase (Luc) mRNA [3] (setting [6]), the AUC was 5.88E+08 p/s*h and the “Lipid/MC3 AUC” value was found to be 1. For the same compound, in series [1], the “Concentration, Alanine aminotransferase” value was determined as 339; the “Concentration, Aspartate aminotransferase” value turned out to be 325; the “Concentration, Lymphocytes” value was 19976; the “Concentration, Monocytes” value is 1429. In addition, the “Concentration, Neutrophils” value in series [1] is on record as 4962.5. The “lipid levels in tissues on weekly dosing” value in the series on mouse tissues is listed as “Accumulation of MC3 was observed after each dose”.
On to “Nonyl 8-((6-(heptadecan-9-yloxy)-6-oxohexyl)(2-hydroxyethyl)amino) octanoate [Compound 27]”, for which the “Fold increase in total body Luc Flux relative to MC3 at 6 h” value with luciferase (Luc) mRNA [2] (i.v. administration, 6 h) is listed as 0.31. Also, in the series with luciferase (Luc) mRNA [2], the “Novel lipid/MC3 expression ratio, i.v.” value was found to be 0.31; the “Total Flux 3 hours” value is given as 1.64E+10; the “Total Flux 6 hours” value amounted to 1.03E+10; the “Total Flux 24 hours” value came out at 1.94E+09. For the same compound, the “Novel lipid/MC3 expression ratio, i.m. Luc” value with luciferase (Luc) mRNA [3] (intramuscular, luciferase) came out at 3.94.
